Experimental data: patent publication US20070264679A1, “Method for analyzing the activity of lipoxygenase using a water-soluble substrate” (Chungnam National University Industry Collaboration …, priority 2006, published 2007)

Molecular target: T1, soybean LOX-1 (Glycine max, UniProt P08170)
T1 construct: purchased Sigma-Aldrich Corp (St. Louis, Mo., USA) lipoxidase Type I-B
T1 sequence (P08170 1-839): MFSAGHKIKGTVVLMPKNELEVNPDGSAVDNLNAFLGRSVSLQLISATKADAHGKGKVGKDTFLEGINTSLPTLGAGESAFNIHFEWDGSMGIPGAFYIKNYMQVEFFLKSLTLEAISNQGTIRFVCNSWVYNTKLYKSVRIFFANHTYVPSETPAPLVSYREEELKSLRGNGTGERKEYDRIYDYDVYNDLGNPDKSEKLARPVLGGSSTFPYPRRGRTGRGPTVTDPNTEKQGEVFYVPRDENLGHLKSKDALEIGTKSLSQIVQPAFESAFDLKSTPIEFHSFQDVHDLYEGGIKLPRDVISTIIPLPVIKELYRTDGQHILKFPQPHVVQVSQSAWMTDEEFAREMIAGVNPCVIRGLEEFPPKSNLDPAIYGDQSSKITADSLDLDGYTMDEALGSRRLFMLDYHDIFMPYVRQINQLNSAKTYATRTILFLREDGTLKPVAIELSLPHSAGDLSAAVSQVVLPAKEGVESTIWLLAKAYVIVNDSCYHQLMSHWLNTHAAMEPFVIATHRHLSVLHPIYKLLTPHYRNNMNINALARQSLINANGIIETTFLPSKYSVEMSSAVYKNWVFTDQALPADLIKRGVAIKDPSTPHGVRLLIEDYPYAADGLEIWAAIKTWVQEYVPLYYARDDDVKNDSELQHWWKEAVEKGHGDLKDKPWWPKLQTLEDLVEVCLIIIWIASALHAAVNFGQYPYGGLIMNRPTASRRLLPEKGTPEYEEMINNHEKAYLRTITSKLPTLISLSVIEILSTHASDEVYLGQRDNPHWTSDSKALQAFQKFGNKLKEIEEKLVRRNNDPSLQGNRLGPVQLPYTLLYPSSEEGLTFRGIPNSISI
Test: Kinetics of oxygenation of arachidonic acid or arachidonoyl-lysophospholipids by soybean LOX-1
Assay type: biochemical
Settings: soybean LOX-1 2.5 units/ml; for Km: 50 mM borax buffer pH 9.0, 25° C.; for Vm: 50 mM borax buffer pH 9.0, unit = one nanomole conjugated diene per min
Experimental: Activities of various LOXs were monitored by measuring the increase in absorbance at 234 nm due to the formation of hydroperoxide (ε234=25,000 M^−1 cm^−1) at 25° C. as described before (Smith et al, J. Biol. Chem. 247 (1972) 1038-1047). One unit is defined as the amount of LOXs that can produce one nanomole of conjugated diene per min. The reaction mixture (500 μl) included reticulocyte LOX (2 units/ml) in 50 mM phosphate buffer (pH 7.4), porcine leukocyte LOX (1 unit/ml) in 100 mM phosphate buffer (pH 7.5) containing 5 mM EDTA and 0.03% Tween 20, or soybean LOX-1 (2.5 units/ml) in 50 mM borax buffer (pH 9.0) at 25° C. The reactions were started by including each substrate (100 μM) into the above reaction mixture.
Reticulocyte LOX (2 units/ml), leukocyte LOX (1 units/ml) or soybean LOX-1 (2.5 units/ml) was incubated with each arachidonoyl derivative substrate of various concentrations as described above. The values of kinetic parameters were obtained according to Lineweaver Burke plot analyses as described before (Barroso et al, J. Chromatogr. B. Analyt. Technol. Biomed. Life. Sci. 814 (2005) 21-28).

CCCCC/C=C\C/C=C\C/C=C\C/C=C\CCCC(=O)OCC(O)COP(=O)([O-])OCC[N+](C)(C)C (stereo not shown) [Arachidonoyl-lysoPC, 1-Arachidonoyl lysophosphatidylcholine]
Km: 5.37 ± 1.6 µM | Km (listed as arachidonoyl-lysoPC): 5.4 µM | Vm: 97.0 ± 8.2 units/μg | Vm (listed as arachidonoyl-lysoPC): 97.0 units/μg
